# Test results reported in patent US20140121236A1, “Compositions and Methods for Treating Myotonic Dystrophy Type 1” (UNIVERSITY OF SOUTHERN CALIFORNIA, priority 2012, published 2014).
# What was measured:
# [1] = tested on: MBNL1 and MBNL2 RNA splicing in DM1 myoblasts; test: Splicing assay (RT-PCR) for RNAs from DM1 myoblasts; assay type: cell-based, human
# Experimental: A. Total RNA was isolated from normal (SKMC) myoblasts, untreated DM1 myoblasts and DM1 myoblasts treated with 50 μM RCN-001 or 50 μM Pentamidine for 17 hours and subjected to RT-PCR analysis using the indicated primers sets for MBNL1 and MBNL2 RNAs. GAPDH RNA was amplified in parallel as an internal control. The results of one of three experiments are shown. B. The relative levels of exon inclusion was measured by densitometry and tabulated as mean % exon inclusion +/− standard deviation.
# Treatment of DM1 myoblasts with RCN-001 is also sufficient to rescue abnormal RNA splicing. Two RNAs were selected that show abnormal splicing in DM1 myoblasts: MBNL1 and MBNL2. DM1 myoblast were treated with 50 μM RCN-001 for 17 hours after which RNA was isolated and splice variants were analyzed as previously described (20-22).
# Splicing assays for RNAs isolated from human myoblasts. DM1 patient myoblasts was treated with 50 μM of RCN-001 or Pentamidine for 17 h as described by Warf et al, 2009. Total RNA was isolated using the RNAeasy mini kit (Qiagen Inc., USA) following manufacture's protocol. cDNA was synthesized using 5 μg of total RNA using First-Strand cDNA synthesis kit (GE Healthcare). PCR amplification was carried out using 150 ng of cDNA for 35 cycles for each target RNA. The primers used for PCR amplification are as follows—
# The relative band intensities were measured using densitometry analyses and the percent of exon inclusion was calculated as [exon inclusion/(exon inclusion+exon exclusion)]×100.
# SHARP = test: Nuclear SHARP levels in treated HSALR mice; assay type: in vivo; conditions: 40 mg/kg i.p. each day for 7 days (not shown)
# Experimental: Furthermore, CUG foci, abnormal RNA splicing, myotonia and reduced Clcn1 protein levels are reversed in HSA^LR mice treated with RCN-001: Age and gender matched HSA^LR mice were treated with either vehicle or 40/mgs/kg of RCN-001 injected i.p. each day for 7 days. After treatment CUG foci were examined and RNA isolated from skeletal muscle was subjected to RT-PCR analysis to examine the efficacy of RCN-001 in correcting the splice defects of Clcn1, lbd3 and Serca-1 RNAs, which are abnormally spliced in DM1 (20).
# CUG-RNA foci were detected by performing FISH on untreated DM1 myoblasts and DM1 myoblasts following treatment. For FISH analysis, DM1 myoblasts were plated on a 24-well clear bottom polystyrene plate with circular glass coverslips followed by treatment. Prior to FISH analysis, cells were fixed using 4% paraformaldehyde in 1×PBS for 20 min at room temperature. FISH analysis was performed using a Cy3 conjugated (CAG)10 oligonucleotide probe (Integrated DNA Technologies, Inc.) as described by Taneja et al, 1995 and Dansithong et al, 2005. CUG-RNA foci were observed as a red signal using fluorescence microscopy. […] Endogenous SHARP was detected using SHARP polyclonal antibodies from Bethyl at a dilution of 1:1000. […] Chloride channel 1 (Clcn1 a.k.a. CIC-1) was detected using CIC-1 polyclonal antibodies from Santa Cruz. […]
structure (smiles),measurement,setting,value
CCCCCCc1cc2cc(-c3nnc(-c4cccc(OC)c4)o3)c(=O)oc2cc1O [RCN-001],rescue of abnormal splicing of MBNL1 and MBNL2,"[1]; 50 μM, 17 hours, RT-PCR",significantly rescues abnormal splicing of MBNL1 and MBNL2
same,"rescue of aberrant splicing of MBNL1, MBNL2, and IR in DM1 myoblasts","[1]; FIG. 6B, semi-quantitative RT-PCR",rescues aberrant splicing
same,nuclear SHARP levels,SHARP,allowed nuclear SHARP levels to be re-established
